Experimental data reported in PubChem BioAssay AID651975 (The Scripps Research Institute Molecular Screening Center, 2013).
Activity calls are given as the source filed them. No rule for the calls is given here.

Each molecule was assayed on StAR promoter luciferase reporter cells, luminescence inhibition (assay: nonselective StAR promoter luciferase inhibitors – cell-based, luminescence, dose response, counter-screen for LRH-1 inverse agonist project, late-stage follow-up (AID 651975)).
In the case of `COc1ccc(CCNC(=O)CSc2nc3[nH]c(=O)cc(O)c3s2)cc1`, the IC50 is reported as > 35.9 µM (inactive).
In the case of `CCOc1ccc(OCCC(=O)OCC(=O)Nc2ccc3c(c2)OCCO3)cc1`, the IC50 is reported as > 35.9 µM (inactive).
For `CC(=O)Nc1ncc(Cc2cc(Cl)ccc2Cl)s1`, the IC50 was > 35.9 µM (inactive).
In the case of `CC(C)CC1(C)NC(=O)N(CC(=O)Nc2ccc3c(c2)OCCO3)C1=O` (centres undefined), the IC50 is reported as > 35.9 µM (inactive).
